Assay results reported in patent US20180305408A1, “COMPOUNDS FOR INDUCING TISSUE FORMATION AND USES THEREOF” (HISTIDE AG, priority 2015, published 2018).
No end group written: not given here.

Columns and labels:
hMSCs = test: Loss of stemness: STRO-1 immunostaining of hMSCs cultured with compounds in solution; type: cell-based, Human; conditions: compound in cell culture media solution; for STRO-1 Expression (%) after 48 h: 400 ng/mL; for STRO-1 Expression (%) after 96 h: 400 ng/mL added every 24 h
Excerpt: The following starting materials and reagents were used: • Apatite ceramics (also called apatite or ceramic in the present invention) were synthetized as described in Mater Res. 2004; 7(4): 625-630. • Titanium was obtained from Goodfellow®. • Hydrogel (poly(acrylamide-co-acrylic acid) gel) was synthetized as described in Langmuir 2011; 27(22):13635-42. • PEEK was obtained from Goodfellow®. • PET (Poly(ethylene terephthtalate) was obtained from Goodfellow@. • Type-I collagen sponge was obtained from Sigma®. • Hexane was obtained from Sigma®. • 3-succinimidyl-3-maleimidopropionate (SMP) was obtained from Sigma®. • DMF was obtained from Sigma®. • PBS 1× was obtained from Gibco®. • 3-(ethoxydimethylsilyl)propylamine was obtained from Sigma®. • Ammonium persulfate was obtained from Biorad®. • N,N,N′,N′-tetramethylethylenediamine was obtained from Aldrich®. • Acrylamid was obtained from Merck®. • Acrylic acid was obtained from Merck®. • N,N-methylene-bis-acrylamide was obtained from Merck®. • NaOH was obtained from Aldrich®. • N,N,N′,N′-tetramethylethylenediamine was obtained from Aldrich®. • Dimethylaminopropyl-3-ethylcarbodiimide hydrochloride was obtained from Aldrich®. • N-hydroxysuccinimide was obtained from Aldrich®. • 2-(N-morpholino)-ethane sulfonic acid was obtained from Aldrich®. • MilliQ water: is water characterised in terms of resistivity (typically 18.2 MΩ·cm at 25° C.). • Low glucose Dulbecco's Modified Eagle Medium (DMEM) was obtained from Invitrogen® • Minimum Essential Medium Eagle without ascorbic acid (αMEM) was obtained from Invitrogen®. • All of the cell culture experiments were carried out without any serum in the medium for the first 8 hours of culture. • Osteoblast progenitors or precursor osteoblasts: MC3T3-E1 cells were obtained from ATCC®. These cells were cultured in Alpha-MEM medium supplemented with 10% fetal calf serum (FCS) and 1% penicillin/streptomycin. All cells were used at a low passage number (passage 7), were subconfluently cultured and were seeded at 10^4 cells/cm^2 for the purpose of the experiments. • Human bone marrow Mesenchymal Stem Cells (hMSCs) were obtained from Lonza®. These cells were cultured in Alpha-MEM supplemented with 10% (v/v) FBS and 1% penicillin/streptomycin and incubated in a humidified atmosphere containing 5% (v/v) CO2 at 37° C. All cells were used at a low passage number (passage 2 to 4), were subconfluently cultured and were seeded at 10^4 cells/cm^2 for the purpose of the experiments. • Human adipose Mesenchymal Stem Cells (haMSCs) were obtained from Lonza®. These cells were cultured in Alpha-MEM supplemented with 10% (v/v) FBS and 1% penicillin/streptomycin and incubated in a humidified atmosphere containing 5% (v/v) CO2 at 37° C. All cells were used at a low passage number (passage 3 to 4), were subconfluently cultured and were seeded at 10^4 cells/cm^2 for the purpose of the experiments. • Mouse Hair Follicle Stem Cells were isolated and cultured as described in Methods Mol Biol. 2010; 585:401-20. • Neuron cells are Neuronal Schwann Cells obtained from ATCC®. These cells were cultured in Dulbecco's Modified Eagle's Medium supplemented with 10% (v/v) FBS and 1% penicillin/streptomycin and incubated in a humidified atmosphere containing 5% (v/v) CO2 at 37° C. All cells were used at a low passage number (passage 6-8), were subconfluently cultured and were seeded at 10^4 cells/cm^2 for the purpose of the experiments. • Human umbilical-vein endothelial cells (HUVECs) were purchased from Promocell®. HUVECs were isolated and grown on gelatin coated culture flasks in a complete HUVEC culture medium (IMDM (Invitrogen, France) supplemented with 20% (v/v) fetal bovine serum (FBS) (PAA, France) and 0.4% (v/v) EC growth supplement/heparin kit (Promocell, France)). Cells were subcultured by using trypsin/EDTA (Invitrogen, France) and maintained in a humidified atmosphere containing 5% CO2 at 37° C. These cells were used at a passage number 3 to 5 for the purpose of the experiments. […]

[1] = system: Human Hematopoietic Stem Cells; test: Differentiation of human hematopoietic stem cells: loss of stemness marker CD-34+ (immunostaining); type: cell-based; conditions: compound in cell media solution, 400 ng/mL, 48 hours

Substance	STRO-1 Expression (%) after 48 h (hMSCs) [%]	STRO-1 Expression (%) after 96 h (hMSCs) [%]	CD34+ Expression (%) [1] [%]
ASASPSSAPVDLKPLSMLYVIGKTPKIDHHKDMIVEESKSIGKTPKID (also: cyclic, ring type not given here) [SEQ ID NO: 734]	33	–	–
SRVLLRPVQMRKIDKGVVTYKKATVLLEEHDKGVVTY (also: cyclic, ring not given here) [SEQ ID NO: 729]	37	14	–
AVPKASSVPQKLEPLTILYYDSSNNVIEQLSNNMVKSIGKTPKID (also: cyclic, ring type not given here) [SEQ ID NO: 736]	37	–	–
PTSSAPTDLRSVKMAKVEIVRKKPIFKEVQVDMVVKASGDKGVVTY (also: cyclic, ring type not given here) [SEQ ID NO: 742]	–	–	33
VPTSSSPISTLYIDKGVVTYLKYHYSSVAEDEYDKVV (also: cyclic, ring not given here) [SEQ ID NO: 718]	26	19	–
VPEAASSLSMLFFEIVRKKPIFLKVYPAATVEDKGVVTY (also: cyclic, ring not given here) [SEQ ID NO: 714]	28	18	–
VSQAARPVQTRKIDDMGVPTKKATVAAVKSDDMGVPT (also: cyclic, ring not given here) [SEQ ID NO: 741]	–	–	26
KASSSRVKMSNITVQ1MRIKPHOGQHIGEMSVVEEHASGSHDKGVVTY (KASSSRVKMSNITVQIMRIKPHQGQHIGEMSVVEEHASGSHDKGVVTY; not fully specified (residue 23); printed as KASSSRVKMSNITVQ1MRIKPHOGQHIGEMSVVEEHASGSHDKGVVTY; also: cyclic, ring type not given here) [SEQ ID NO: 743]	–	–	42
KIPKASSVPQELEPLPIVYYDENEKVVEQLSNDMVRSGSGSRDENEKV (also: cyclic, ring type not given here) [SEQ ID NO: 735]	26	–	–
RVPSTSSAPVKTSNITMQIMDNGRVLLLGEMSMIVEESGSLIGKTPKID (also: cyclic, ring type not given here) [SEQ ID NO: 737]	28	–	–
VPTDDSATSTLYYDKGVVTYLRKHRDDEHSDKGVVTY (also: cyclic, ring not given here) [SEQ ID NO: 727]	26	13	–
HVTKPTSVPTKLSPISILFIDDSSNVIYKQYENMVVESSGSHIGKTPKID (also: cyclic, ring type not given here) [SEQ ID NO: 733]	23	–	–
TPTSSSPINTLYFDDMGVPTYGKIPSSVVDDEYDKVV (also: cyclic, ring not given here) [SEQ ID NO: 720]	21	14	–
APTGGSATSMLYYDKGVVTYLRKHRGGVVKDKGVVTY (also: cyclic, ring type not given here) [SEQ ID NO: 717]	28	17	–
VPTVVSAISTLYLRIKPHQGQHLKNYQVVVVENDKQQII (also: cyclic, ring not given here) [SEQ ID NO: 715]	31	24	–
VPTVVSPISMLYIDDMGVPTYKQYEVVVVEDDMGVPT (also: cyclic, ring not given here) [SEQ ID NO: 721]	29	16	–
VPTAAEPISMLYLDEYDKVVKFKYEAAAVSNDKQQII (also: cyclic, ring not given here) [SEQ ID NO: 719]	26	16	–
IPKASSAPVGQRPVQMRKIDKGVVTYKKATVSSVEESGSLDKGVVTY (also: cyclic, ring type not given here) [SEQ ID NO: 739]	–	–	35

Substance	STRO-1 Expression (%) after 48 h (hMSCs) [%]	STRO-1 Expression (%) after 96 h (hMSCs) [%]	CD34+ Expression (%) [1] [%]
VPQRLEPLTILYYDAANNVVEQLSNDMVKSDENEKV (also: cyclic, ring not given here) [SEQ ID NO: 731]	31	–	–
VPQAAEPLPMLYYDKGVVTYEQLSNAAVRSDKGVVTY (also: cyclic, ring not given here) [SEQ ID NO: 723]	34	20	–
APVKMEPLPTVYYDDMGVPTEQLSNDMVEESGSLDDMGVPT (also: cyclic, ring type not given here) [SEQ ID NO: 746]	–	–	37
VPTMMSNITTQIMRIKPHQGQHIGEMSMMQHNDEYDKVV (also: cyclic, ring not given here) [SEQ ID NO: 725]	35	20	–
VPTAAEPLTMLYYEIVRKKPIFEQLSNMVEHSDDMGVPT (also: cyclic, ring not given here) [SEQ ID NO: 744]	–	–	38
EPSSVSQAAEPLPIVYYRIKPHOGQHEQLSNMIVKSSKSSDDMGVPT [SEQ ID NO: 747]	–	–	38
NDEGLESVPTGQSPISILYIRIKPHQGQHYKQYELEEHSQSESRDENEKV (also: cyclic, ring type not given here) [SEQ ID NO: 732]	27	–	–
KASSVPQEERPVQMRKIGGGGGGGKKATVMIVRSSKSSDDMGVPT (also: cyclic, ring type not given here) [SEQ ID NO: 740]	–	–	31
APTLLNAISMLYFNDKQQIILKKYRLLVVRNDKQQII (also: cyclic, ring type not given here) [SEQ ID NO: 716]	30	20	–
APVAAKPLSMLYVDKGVVTYDHHKDAAVEEDEYDKVV (also: cyclic, ring type not given here) [SEQ ID NO: 722]	31	18	–
EPSSSRVRLEPLTTLYYGGGGGGGEQLSNVVEEHSKDKGVVTY (also: cyclic, ring type not given here) [SEQ ID NO: 745]	–	–	37
ASASPSSVSQDLRSVKVAKVIGKTPKIKEVQVMIVKSSKIGKTPKID (also: cyclic, ring type not given here) [SEQ ID NO: 738]	31	–	–
SRVAARSVKMAKVGGGGGGGKEVQVAAEEHGGGGGG (also: cyclic, ring not given here) [SEQ ID NO: 726]	39	21	–
VPTGGEPLTTLYYNDKQQIIEQLSNGGEHSDDMGVPT (also: cyclic, ring not given here) [SEQ ID NO: 728]	32	17	–
VPQQQEPLTTLYYDEYDKVVEQLSNQQVKSNDKQQII (also: cyclic, ring not given here) [SEQ ID NO: 724]	29	16	–
TQVAARPVQTRKIDDMGVPTKKATVAAEDHDKGVVTY (also: cyclic, ring not given here) [SEQ ID NO: 730]	36	21	–
VPTAASAISILYLDAANNVVLKNYQAAVVEDKGVVTY (also: cyclic, ring not given here) [SEQ ID NO: 713]	29	23	–
